Test results taken from patent publication US7678918B2, “Intermediates for imidazonaphthyridines” (3M Innovative Properties Company, priority 1997, dated 2010).

What was measured:
[1] = test system: TNF; experiment: Cytokine Induction in Human Cells: tumor necrosis factor (TNF) secreted by PBMCs, ELISA; format: cell-based; details: 18 to 24 hours; further: call rule not given here
Outline: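 Human donor PBMCs at 1.5-2×10^6 cells/mL in RPMI with 10% FBS were exposed to compound, generally at 0.1 to 100 μM (≤1% DMSO final), for 18 to 24 h at 37 °C. Secreted TNF in supernatant was measured by ELISA and reported as pg/mL.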

[2] = test system: interferon α; experiment: Interferon (α) Induction in Human Cells (PBM's, 48 hours, A549 bioassay); format: cell-based; design: key: +: indicates that the compound induced interferon α at that particular concentration; −: indicates that the compound did not induce interferon α at that particular concentration; ±: indicates that the results were equivocal at that particular concentration; details: 48 hours incubation
Method: An in vitro human blood cell system was used to assess interferon induction by compounds of the invention. Activity is based on the measurement of interferon secreted into culture media. Interferon is measured by bioassay.
Whole blood was collected by venipuncture into EDTA vacutainer tubes. Peripheral blood mononuclear cells (PBM's) were separated from whole blood by using either LeucoPREP™ Brand Cell Separation Tubes (available from Becton Dickinson) or Ficoll-Paque® solution (available from Pharmacia LKB Biotechnology Inc, Piscataway, N.J.). The PBM's were suspended at 1×10^6/mL in RPMI 1640 media (available from GIBCO, Grand Island, N.Y.) containing 25 mM HEPES (N-2-hydroxyethylpiperazine-N′-2-ethanesulfonic acid) and L-glutamine (1% penicillin-streptomycin solution added) with 10% heat inactivated (56° C. for 30 minutes) autologous serum added. 200 μL portions of PBM suspension were added to 96 well (flat bottom) MicroTest III sterile tissue culture plates.
The compounds were solubilized in ethanol, dimethyl sulfoxide or tissue culture water then diluted with tissue culture water, 0.01N sodium hydroxide or 0.01N hydrochloric acid (The choice of solvent will depend on the chemical characteristics of the compound being tested.). Ethanol or DMSO concentration should not exceed a final concentration of 1% for addition to the culture wells. Compounds were initially tested in a concentration range of from about 0.1 μg/mL to about 5 μg/mL. Compounds which show induction at a concentration of 0.5 μg/mL were then tested in a wider concentration range.
The solution of test compound was added in a volume (less than or equal to 50 μL) to the wells containing 200 μL of diluted whole blood or of PBM's in media. Solvent and/or media was added to control wells (wells with no test compound) and as needed to adjust the final volume of each well to 250 μL. The plates were covered with plastic lids, vortexed gently and then incubated for 48 hours at 37° C. with a 5% carbon dioxide atmosphere.
Following incubation, the plates were covered with parafilm and then centrifuged at 1000 rpm for 10 to 15 minutes at 4° C. in a Damon IEC Model CRU-5000 centrifuge. Media (about 200 μL) was removed from 4 to 8 wells and pooled into 2 mL sterile freezing vials. Samples were maintained at −70° C. until analysis.
Interferon was determined by bioassay using A549 human lung carcinoma cells challenged with encephalomyocarditis. The details of the bioassay method have been described by G. L. Brennan and L. H. Kronenberg in “Automated Bioassay of Interferons in Micro-test Plates”, Biotechniques, June/July 78, 1983, incorporated herein by reference. Briefly stated the method is as follows: interferon dilutions and A549 cells are incubated at 37° C. for 12 to 24 hours. The incubated cells are infected with an inoculum of encephalomyocarditis virus. The infected cells are incubated for an additional period at 37° C. before quantifying for viral cytopathic effect. The viral cytopathic effect is quantified by staining followed by spectrophotometric absorbance measurements. Results are expressed as alpha reference units/mL based on the value obtained for NIH HU IF-L standard. The interferon was identified as essentially all interferon alpha by testing in checkerboard neutralization assays against rabbit anti-human interferon (beta) and goat anti-human interferon (alpha) using A549 cell monolayers challenged with encephalomyocarditis virus.

[3] = test system: IFN; experiment: Cytokine Induction in Human Cells: interferon (IFN) secreted by PBMCs, A549/encephalomyocarditis bioassay; format: cell-based; details: 18 to 24 hours; further: call rule not given here
Outline: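 Human PBMCs from healthy donors at 1.5-2×10^6 cells/mL in RPMI with 10% FBS, exposed to compounds (typically 0.1 to 100 μM, ≤1% DMSO) for 18 to 24 h at 37° C. Secreted IFN measured by A549/encephalomyocarditis virus cytopathic-effect bioassay, in alpha reference units/mL against NIH human leukocyte IFN standard.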

| Structure (SMILES) | melting point | TNF induction ([1]; Dose Concentration 0.1 μM) | TNF induction ([1]; Dose Concentration 1.0 μM) | TNF induction ([1]; Dose Concentration 10.0 μM) | TNF induction ([1]; Dose Concentration 100.0 μM) | Interferon (α) Induction in Human Cells ([2]; Dose Concentration 0.01 μg/mL) | Interferon (α) Induction in Human Cells ([2]; Dose Concentration 0.05 μg/mL) | Interferon (α) Induction in Human Cells ([2]; Dose Concentration 0.10 μg/mL) | Interferon (α) Induction in Human Cells ([2]; Dose Concentration 0.50 μg/mL) | Interferon (α) Induction in Human Cells ([2]; Dose Concentration 1.0 μg/mL) | Interferon (α) Induction in Human Cells ([2]; Dose Concentration 5.0 μg/mL) | Interferon (α) Induction in Human Cells ([2]; Dose Concentration 10.0 μg/mL) | Interferon (α) Induction in Human Cells ([2]; Dose Concentration 25.0 μg/mL) | Interferon (α) Induction in Human Cells ([2]; Dose Concentration 50.0 μg/mL) | IFN induction ([3]; Dose Concentration 0.1 μM) | IFN induction ([3]; Dose Concentration 1.0 μM) | IFN induction ([3]; Dose Concentration 10.0 μM) | IFN induction ([3]; Dose Concentration 100.0 μM) |
| --- | --- | --- | --- | --- | --- | --- | --- | --- | --- | --- | --- | --- | --- | --- | --- | --- | --- | --- |
| CC(C)Cn1cnc2c(N)nc3c(c21)CCCN3 [Example 10, 6,7,8,9-Tetrahydro-1-(2-methylpropyl)-1H-imidazo[4,5-c][1,8]naphthyridin-4-amine] | 231 to 233 °C | − | − | − | + | − | − | − | − | + | + | + | + | + | + | + | + | + |
| CC(C)Cn1cnc2c(N)nc3cnccc3c21 [Example 22, 1-(2-Methylpropyl)-1H-imidazo[4,5-c][1,7]naphthyridin-4-amine] | 306 to 307 °C |  | − | ± | + |  |  |  |  | − | − | − | + |  |  | − | − | − |
| CCCCc1nc2c(N)nc3cnccc3c2n1CC(C)C [Example 27, 2-Butyl-1-(2-methylpropyl)-1H-imidazo[4,5-c][1,7]naphthyridin-4-amine] | 213 to 214 °C |  | + | + | + | − | − | + | + | + | + | + | + |  |  | + | + | + |
| CCCCc1nc2c(N)nc3cccnc3c2n1CCNC(=O)CCCCCC1NC(=O)NC1C (centres unmarked) [Example 115, N^1-[4-(4-Amino-2-butyl-1H-imidazo[4,5-c][1,5]naphthyridin-1-yl)ethyl]-6-(5-methyl-2-oxo-4-imidazolidinyl)hexamide] | 184 to 186 °C | − | − | + | + |  |  |  |  |  |  |  |  |  | − | − | + | + |

Second part, led by results:

| melting point | Structure (SMILES) | TNF induction ([1]; Dose Concentration 0.1 μM) | TNF induction ([1]; Dose Concentration 1.0 μM) | TNF induction ([1]; Dose Concentration 10.0 μM) | TNF induction ([1]; Dose Concentration 100.0 μM) | Interferon (α) Induction in Human Cells ([2]; Dose Concentration 0.01 μg/mL) | Interferon (α) Induction in Human Cells ([2]; Dose Concentration 0.05 μg/mL) | Interferon (α) Induction in Human Cells ([2]; Dose Concentration 0.10 μg/mL) | Interferon (α) Induction in Human Cells ([2]; Dose Concentration 0.50 μg/mL) | Interferon (α) Induction in Human Cells ([2]; Dose Concentration 1.0 μg/mL) | Interferon (α) Induction in Human Cells ([2]; Dose Concentration 5.0 μg/mL) | Interferon (α) Induction in Human Cells ([2]; Dose Concentration 10.0 μg/mL) | Interferon (α) Induction in Human Cells ([2]; Dose Concentration 25.0 μg/mL) | Interferon (α) Induction in Human Cells ([2]; Dose Concentration 50.0 μg/mL) | IFN induction ([3]; Dose Concentration 0.1 μM) | IFN induction ([3]; Dose Concentration 1.0 μM) | IFN induction ([3]; Dose Concentration 10.0 μM) | IFN induction ([3]; Dose Concentration 100.0 μM) |
| --- | --- | --- | --- | --- | --- | --- | --- | --- | --- | --- | --- | --- | --- | --- | --- | --- | --- | --- |
| 220 to 223 °C | CC(C)Cn1cnc2c(N)nc3c(c21)CCNC3 [Example 23, 6,7,8,9-Tetrahydro-1-(2-methylpropyl)-1H-imidazo[4,5-c][1,7]naphthyridin-4-amine] |  | − | ± | − |  |  |  |  | − | − | − | − |  |  | + | + | − |
| 322 to 324 °C | Cc1nc2c(N)nc3cnccc3c2n1CC(C)C [Example 25, 2-Methyl-1-(2-methylpropyl)-1H-imidazo[4,5-c][1,7]naphthyridin-4-amine] |  | − | ± | − | − | − | − | − | − | + | + | + |  |  | − | + | + |
| 226 to 230 °C | Cc1nc2c(N)nc3c(c2n1CC(C)C)CCNC3 [Example 26, 6,7,8,9-Tetrahydro-2-methyl-1-(2-methylpropyl)-1H-imidazo[4,5-c][1,7]naphthyridin-4-amine] |  | + | ± | − | − | − | − | − | − | ± | + | + |  |  | + | − | + |
| 164 to 166 °C | CCCCc1nc2c(N)nc3c(c2n1CC(C)C)CCNC3 [Example 28, 2-Butyl-6,7,8,9-tetrahydro-1-(2-methylpropyl)-1H-imidazo[4,5-c][1,7]naphthyridin-4-amine] |  | − | + | + | − | ± | + | + | + | + | + | + |  |  | + | + | + |
| 230 to 231.5 °C | CC(C)Cn1cnc2c(N)nc3cccnc3c21 [Example 32, 1-(2-Methylpropyl)-1H-imidazo[4,5-c][1,5]naphthyridin-4-amine] |  | − | − | − | − | − | − | − | + | + | + | + | + |  | + | + | + |
| 241 to 242 °C | CCCCc1nc2c(N)nc3cccnc3c2n1CCNC(=O)Cn1cc(C)c(=O)[nH]c1=O [Example 114, N^1-[4-(4-Amino-2-butyl-1H-imidazo[4,5-c][1,5]naphthyridin-1-yl)ethyl]-2-(5-methyl-2,4-dioxo-1,2,3,4-tetrahydro-1-pyrimidinyl)acetamide] | − | − | + | + |  |  |  |  |  |  |  |  |  | − | − | + | + |
